# According to ChEMBL document CHEMBL4138123, “Design, synthesis and biological evaluation of novel pyrazolochalcones as potential modulators of PI3K/Akt/mTOR pathway and inducers of apoptosis in breast cancer cells” (Eur J Med Chem, 2017):
# Legend:
# Type in all cases: functional
# HCC 2998 = experiment: Cytotoxicity against human HCC2998 cells assessed as growth inhibition after 48 hrs by sulforhodamine B assay; details: HCC 2998, 48 h
# HOP-62 = experiment: Cytotoxicity against human HOP62 cells assessed as growth inhibition after 48 hrs by sulforhodamine B assay; details: HOP-62, 48 h
# KM12 = experiment: Cytotoxicity against human KM12 cells assessed as growth inhibition after 48 hrs by sulforhodamine B assay; details: KM12, 48 h
# Hs-578T = experiment: Cytotoxicity against human Hs 578T cells assessed as growth inhibition after 48 hrs by sulforhodamine B assay
# SR = experiment: Cytotoxicity against human SR cells assessed as growth inhibition after 48 hrs by sulforhodamine B assay
# HL-60(TB) = experiment: Cytotoxicity against human HL-60(TB) cells assessed as cell growth at 0.01 uM after 48 hrs by sulforhodamine B assay relative to control; details: HL-60, 48 h, read-out: Activity
# M14 [1] = experiment: Cytotoxicity against human M14 cells assessed as cell growth at 1 uM after 48 hrs by sulforhodamine B assay relative to control; details: M14, 48 h, read-out: Activity
# OVCAR-3 [2] = experiment: Cytotoxicity against human OVCAR3 cells assessed as cell growth at 0.1 uM after 48 hrs by sulforhodamine B assay relative to control; details: OVCAR-3, 48 h, read-out: Activity
# NCI-H226 [3] = experiment: Cytotoxicity against human NCI-H226 cells assessed as cell growth at 0.01 uM after 48 hrs by sulforhodamine B assay relative to control; details: NCI-H226, 48 h, read-out: Activity
# RXF 393 = experiment: Cytotoxicity against human RXF393 cells assessed as cell growth at 10 uM after 48 hrs by sulforhodamine B assay relative to control; details: RXF 393, 48 h, read-out: Activity
# MCF7 = experiment: Cytotoxicity against human MCF7 cells assessed as cell growth at 0.01 uM after 48 hrs by sulforhodamine B assay relative to control; details: MCF7, 48 h, read-out: Activity
# CCRF-CEM [4] = experiment: Cytotoxicity against human CCRF-CEM cells assessed as cell growth at 10 uM after 48 hrs by sulforhodamine B assay relative to control; details: read-out: Activity
# CCRF-CEM [5] = experiment: Cytotoxicity against human CCRF-CEM cells assessed as cell growth at 1 uM after 48 hrs by sulforhodamine B assay relative to control; details: read-out: Activity
# NCI/ADR-RES = experiment: Cytotoxicity against human NCI/ADR-RES cells assessed as cell growth at 1 uM after 48 hrs by sulforhodamine B assay relative to control; details: read-out: Activity
# SF-539 = experiment: Cytotoxicity against human SF539 cells assessed as cell growth at 0.1 uM after 48 hrs by sulforhodamine B assay relative to control; details: SF-539, 48 h, read-out: Activity
# DU-145 = experiment: Cytotoxicity against human DU145 cells assessed as cell growth at 0.1 uM after 48 hrs by sulforhodamine B assay relative to control; details: DU-145, 48 h, read-out: Activity
# OVCAR-3 [6] = experiment: Cytotoxicity against human OVCAR3 cells assessed as cell growth at 0.01 uM after 48 hrs by sulforhodamine B assay relative to control; details: OVCAR-3, 48 h, read-out: Activity
# NCI-H226 [7] = experiment: Cytotoxicity against human NCI-H226 cells assessed as cell growth at 10 uM after 48 hrs by sulforhodamine B assay relative to control; details: NCI-H226, 48 h, read-out: Activity
# NCI-H460 [8] = experiment: Cytotoxicity against human NCI-H460 cells assessed as cell growth at 10 uM after 48 hrs by sulforhodamine B assay relative to control; details: NCI-H460, 48 h, read-out: Activity
# K562 [9] = experiment: Cytotoxicity against human K562 cells assessed as cell growth at 1 uM after 48 hrs by sulforhodamine B assay relative to control; details: K562, 48 h, read-out: Activity
# IGROV-1 [10] = experiment: Cytotoxicity against human IGROV1 cells assessed as cell growth at 100 uM after 48 hrs by sulforhodamine B assay relative to control; details: IGROV-1, 48 h, read-out: Activity
# M14 [11] = experiment: Cytotoxicity against human M14 cells assessed as cell growth at 10 uM after 48 hrs by sulforhodamine B assay relative to control; details: M14, 48 h, read-out: Activity
# K562 [12] = experiment: Cytotoxicity against human K562 cells assessed as cell growth at 10 uM after 48 hrs by sulforhodamine B assay relative to control; details: K562, 48 h, read-out: Activity
# OVCAR-8 = experiment: Cytotoxicity against human OVCAR8 cells assessed as cell growth at 0.1 uM after 48 hrs by sulforhodamine B assay relative to control; details: OVCAR-8, 48 h, read-out: Activity
# UO-31 [13] = experiment: Cytotoxicity against human UO31 cells assessed as cell growth at 100 uM after 48 hrs by sulforhodamine B assay relative to control; details: UO-31, 48 h, read-out: Activity
# OVCAR-3 [14] = experiment: Cytotoxicity against human OVCAR3 cells assessed as cell growth at 100 uM after 48 hrs by sulforhodamine B assay relative to control; details: OVCAR-3, 48 h, read-out: Activity
# IGROV-1 [15] = experiment: Cytotoxicity against human IGROV1 cells assessed as cell growth at 1 uM after 48 hrs by sulforhodamine B assay relative to control; details: IGROV-1, 48 h, read-out: Activity
# SK-MEL-5 = experiment: Cytotoxicity against human SK-MEL-5 cells assessed as cell growth at 0.1 uM after 48 hrs by sulforhodamine B assay relative to control; details: SK-MEL-5, 48 h, read-out: Activity
# Malme-3M [16] = experiment: Cytotoxicity against human MALME-3M cells assessed as cell growth at 100 uM after 48 hrs by sulforhodamine B assay relative to control; details: read-out: Activity
# NCI-H460 [17] = experiment: Cytotoxicity against human NCI-H460 cells assessed as cell growth at 0.1 uM after 48 hrs by sulforhodamine B assay relative to control; details: NCI-H460, 48 h, read-out: Activity
# Malme-3M [18] = experiment: Cytotoxicity against human MALME-3M cells assessed as cell growth at 1 uM after 48 hrs by sulforhodamine B assay relative to control; details: read-out: Activity
# 786-0 = experiment: Cytotoxicity against human 786-0 cells assessed as cell growth at 1 uM after 48 hrs by sulforhodamine B assay relative to control; details: 786-0, 48 h, read-out: Activity
# UO-31 [19] = experiment: Cytotoxicity against human UO31 cells assessed as cell growth at 10 uM after 48 hrs by sulforhodamine B assay relative to control; details: UO-31, 48 h, read-out: Activity
# HT-29 = experiment: Cytotoxicity against human HT-29 cells assessed as cell growth at 100 uM after 48 hrs by sulforhodamine B assay relative to control; details: HT-29, 48 h, read-out: Activity
# COLO 205 = experiment: Cytotoxicity against human COLO205 cells assessed as cell growth at 0.01 uM after 48 hrs by sulforhodamine B assay relative to control; details: COLO 205, 48 h, read-out: Activity
# BT-549 = experiment: Cytotoxicity against human BT549 cells assessed as cell growth at 0.1 uM after 48 hrs by sulforhodamine B assay relative to control; details: BT-549, 48 h, read-out: Activity
# K562 [20] = experiment: Cytotoxicity against human K562 cells assessed as cell growth at 100 uM after 48 hrs by sulforhodamine B assay relative to control; details: K562, 48 h, read-out: Activity
structure (smiles),measurement,setting,value
COc1ccc(-c2cc(/C=C/C(=O)c3ccc4c(c3)OCO4)[nH]n2)cc1OC,GI50,HCC 2998,1.74 µM
same,GI50,HOP-62,1.73 µM
same,GI50,KM12,0.62 µM
same,GI50,Hs-578T,3.76 µM
same,GI50,SR,0.25 µM
COc1ccc(C(=O)/C=C/c2cc(-c3ccc(OC)c(OC)c3)n[nH]2)cc1OC,growth at 0.01 µM,HL-60(TB),101%
same,growth at 1 µM,M14 [1],92%
same,growth at 0.1 µM,OVCAR-3 [2],109%
same,growth at 0.01 µM,NCI-H226 [3],94%
same,growth at 10 µM,RXF 393,-84%
same,growth at 0.01 µM,MCF7,85%
same,GI50,HCC 2998,1.74 µM
same,TGI,HCC 2998,3.19 µM
same,growth at 10 µM,CCRF-CEM [4],-5%
same,growth at 1 µM,CCRF-CEM [5],15%
same,growth at 1 µM,NCI/ADR-RES,89%
same,growth at 0.1 µM,SF-539,89%
same,growth at 0.1 µM,DU-145,105%
same,growth at 0.01 µM,OVCAR-3 [6],107%
same,growth at 10 µM,NCI-H226 [7],-46%
same,growth at 10 µM,NCI-H460 [8],-20%
same,GI50,HOP-62,1.73 µM
same,TGI,HOP-62,5.6 µM
same,growth at 1 µM,K562 [9],38%
same,GI50,KM12,0.625 µM
same,TGI,KM12,2.08 µM
same,growth at 100 µM,IGROV-1 [10],-2%
same,growth at 10 µM,M14 [11],-58%
same,growth at 10 µM,K562 [12],3%
same,growth at 0.1 µM,OVCAR-8,98%
same,growth at 100 µM,UO-31 [13],-68%
same,growth at 100 µM,OVCAR-3 [14],-64%
same,growth at 1 µM,IGROV-1 [15],94%
same,growth at 0.1 µM,SK-MEL-5,96%
same,GI50,Hs-578T,3.76 µM
same,TGI,Hs-578T,> 100 µM
same,growth at 100 µM,Malme-3M [16],-11%
same,growth at 0.1 µM,NCI-H460 [17],99%
same,growth at 1 µM,Malme-3M [18],104%
same,growth at 1 µM,786-0,78%
same,growth at 10 µM,UO-31 [19],-52%
same,growth at 100 µM,HT-29,-39%
same,growth at 0.01 µM,COLO 205,90%
same,growth at 0.1 µM,BT-549,89%
COc1cc(C(=O)/C=C/c2cc(-c3cc(OC)c(OC)c(OC)c3)n[nH]2)cc(OC)c1OC,growth at 0.01 µM,HL-60(TB),112%
same,growth at 1 µM,M14 [1],98%
same,growth at 0.1 µM,OVCAR-3 [2],105%
same,growth at 0.01 µM,NCI-H226 [3],99%
same,growth at 10 µM,RXF 393,-88%
same,growth at 0.01 µM,MCF7,95%
same,LC50,HCC 2998,6.31 µM
same,TGI,HCC 2998,3.39 µM
same,growth at 10 µM,CCRF-CEM [4],-7%
same,growth at 1 µM,CCRF-CEM [5],67%
same,growth at 1 µM,NCI/ADR-RES,95%
same,growth at 0.1 µM,SF-539,91%
same,growth at 100 µM,K562 [20],1%
same,growth at 0.01 µM,OVCAR-3 [6],107%
same,growth at 10 µM,NCI-H226 [7],-92%
same,growth at 10 µM,NCI-H460 [8],-51%
same,LC50,HOP-62,5.74 µM
same,TGI,HOP-62,2.89 µM
same,growth at 1 µM,K562 [9],94%
same,LC50,KM12,5.77 µM
same,TGI,KM12,2.93 µM
same,growth at 100 µM,IGROV-1 [10],-97%
same,growth at 10 µM,M14 [11],-90%
same,growth at 0.1 µM,OVCAR-8,94%
same,growth at 100 µM,UO-31 [13],-100%
same,growth at 100 µM,OVCAR-3 [14],-98%
same,growth at 1 µM,IGROV-1 [15],99%
same,growth at 0.1 µM,SK-MEL-5,95%
same,LC50,Hs-578T,> 100 µM
same,TGI,Hs-578T,53.9 µM
same,TGI,SR,> 100 µM
same,CC50,SR; read-out: LC50 (the source's name),> 100 µM
same,growth at 100 µM,Malme-3M [16],-94%
same,growth at 0.1 µM,NCI-H460 [17],104%
same,growth at 1 µM,Malme-3M [18],89%
same,growth at 1 µM,786-0,80%
same,growth at 10 µM,UO-31 [19],-95%
same,growth at 100 µM,HT-29,-58%
same,growth at 0.01 µM,COLO 205,103%
same,growth at 0.1 µM,BT-549,105%
